The values that follow are results of earlier work, collected in patent US6663884B2, “Method of detoxifying the egg of puffer fish for creating healthy foodstuffs and the resulting product” (priority 2002, dated 2003).

Consider `NC1=N[C@H](O)[C@H]2[C@H]3O[C@]4(O)O[C@@H]([C@@H](O)[C@@]2(N1)[C@@H]4O)[C@]3(O)CO` [tetrodotoxin], for which the solubility in water entry is listed as “soluble in water”.
